System: Wnt reporter
Assay: Wnt reporter (Super 8X Topflash, TCF promoter) luciferase IC50 assay in STF and STF3A cells
Type: cell-based
Settings: for inhibition of the Wnt reporter: HEK293 cells stimulated with either exogenous (STF) or endogenous Wnt 3a (STF3a); for IC50: range over STF (exogenous Wnt3a, paracrine) and STF3A (endogenous Wnt3a, autocrine) HEK293 cells, 24 hours incubation
Description: STF and STF3A cells were cultured in DMEM, 4500 mg/L glucose supplemented with 10% fetal bovine serum, 2 mM L-glutamine, 110 mg/L sodium pyruvate and Penicillin/Streptomycin.
STF cells are HEK293 cells stably expressing the Super 8X Topflash M50 (http://www.addgene.org/12456/; the entire content of which is incorporated herein by reference) reporter. STF3A cells are HEK293 cells stably expressing both Super 8X Topflash reporter and pPGK-mWnt3A. The above cell lines are a gift from David Virshup.
L-Wnt3A cells were cultured in DMEM, 4500 mg/L glucose supplemented with 10% fetal bovine serum and 2 mM L-glutamine and 110 mg/L sodium pyruvate and Penicillin/Streptomycin. Wnt3A-Conditioned media was prepared with L-Wnt3A cells cultured according to recommended protocols from ATCC (http://www.atcc.org/products/all/CRL-2647.aspx#culturemethod).
Unless otherwise indicated, all experiments described herein that call for supplemental Wnt3a utilize Wnt3a conditioned media prepared by harvesting media from L-cells stably transfected with a Wnt3a coding construct (available from ATCC #CRL-2647). The cells are cultured in DMEM containing 10% fetal bovine serum (FBS). The medium, harvested from adherent cells cultured to about 80% confluency over 4 days, is purified through a 0.2 μm filter and stored at 4° C. over several months without an appreciable loss in activity [Willert et al. Nature 423, 448-52 (2003)].
STF and STF3A cells were seeded in 96 well plates, with 20,000 cells in 100 μL media per well. Following 16 hours incubation, 50 μL of media per well containing STF cells were replaced with the same volume of Wnt3A-Conditioned media.
iCRT3 and analogs were tested in triplicates at a concentration range of 50 μM-0.00013 μM, at 5-fold dilutions. Cells were incubated with the compounds for 24 hours.
Cell viability was measured after incubation with 100 μL of PrestoBlue® Cell Viability Reagent in DMEM (1:9) for 30 minutes. Following fluorescence measurements, media containing PrestoBlue reagents was aspirated. Cell were lysed in 60 μL of Dual-Glo® Reagent from the Dual-Glo® Luciferase Assay System. Luciferase activity was quantified with a luminometer after 10 minutes of incubation at room temperature.
Background subtracted luminescence readings (RLU) from the Dual-Glo® Luciferase assay were normalized against background subtracted fluorescence values (RFU) from the PrestoBlue® Cell Viability assay.
The RLU/RFU values were plotted using GraphPad Prism (www.graphpad.com). The curve was fitted with a three parameter curve fitting equation: Y=Min value+(Max value−Min value)/[1+10̂(X−lg IC50)].
Cell lines tested include STF, which are HEK293 cells expressing firefly luciferase under the control of the TCF promoter, and STF3A, which are the same as STF but also expresses Wnt3a constitutively. The two cell lines facilitate the testing of the compounds in the context of Wnt signaling activated in a paracrine (STF) versus autocrine (STF3A) fashion.
Day 0—Seed cells in 96-well plates (20,000 cells per well)
Day 1—Add compounds. For STF cells, half of the medium was also changed to Wnt3a conditioned medium.
Day 2—Measure PrestoBlue (cell viability) and Dual-Glo luciferase (TCF promoter activity).
The concentration range for iCRT3 was 10 μM-0.0000001 μM. All other compounds were tested at a concentration range of 10 μM-0.000026 μM.

| IC50 | SMILES | inhibition of the Wnt reporter |
| --- | --- | --- |
| 2 to 8 µM | CCc1ccc(-c2nc(CSCC(=O)NCCc3cccnc3)c(C)o2)cc1 [II-7] | dose dependent inhibition |
| 14 to 30 µM | CCc1ccc(-c2nc(CSCC(=O)NCCc3ccccc3)c(C)o2)cc1 [iCRT3, reference compound] | dose dependent inhibition |

| SMILES | IC50 | inhibition of the Wnt reporter |
| --- | --- | --- |
| CCc1ccc(-c2nc(CSCC(=O)NCCc3ccc(F)cc3)c(C)o2)cc1 [II-1, 2-[2-(4-ethyl-phenyl)-5-methyl-oxazol-4-ylmethylsulfanyl]-N-[2-(4-fluoro-phenyl)-ethyl]-acetamide] | 2 to 8 µM | dose dependent inhibition |

Reference: patent US20170355686A1, “NOVEL OXAZOLE COMPOUNDS AS BETA CATENIN MODULATORS AND USES THEREOF” (NEW YORK UNIVERSITY, priority 2014, published 2017)
